Results reported in patent US20260124170A1, “PHARMACEUTICAL COMPOSITION COMPRISING METABOLITE OF ENAVOGLIFLOZIN, AND USE THEREOF” (DAEWOONG PHARMACEUTICAL CO., LTD., priority 2022, published 2026).
Several values for one entry are separate records, joined by “and”; a condition that tells them apart may be missing. Equal entries are not always repeated.

Legend:
[1] = molecular target: T1, SGLT1 (Homo sapiens, UniProt P13866); assay: Whole-cell patch clamp glucose current, binding and dissociation, CHO-SGLT1; format: cell-based; details: for Dissociation degree T1/2, off (s), SGLT1: washout
T1 construct: expressed in transfected cells
T1 sequence (P13866 1-664): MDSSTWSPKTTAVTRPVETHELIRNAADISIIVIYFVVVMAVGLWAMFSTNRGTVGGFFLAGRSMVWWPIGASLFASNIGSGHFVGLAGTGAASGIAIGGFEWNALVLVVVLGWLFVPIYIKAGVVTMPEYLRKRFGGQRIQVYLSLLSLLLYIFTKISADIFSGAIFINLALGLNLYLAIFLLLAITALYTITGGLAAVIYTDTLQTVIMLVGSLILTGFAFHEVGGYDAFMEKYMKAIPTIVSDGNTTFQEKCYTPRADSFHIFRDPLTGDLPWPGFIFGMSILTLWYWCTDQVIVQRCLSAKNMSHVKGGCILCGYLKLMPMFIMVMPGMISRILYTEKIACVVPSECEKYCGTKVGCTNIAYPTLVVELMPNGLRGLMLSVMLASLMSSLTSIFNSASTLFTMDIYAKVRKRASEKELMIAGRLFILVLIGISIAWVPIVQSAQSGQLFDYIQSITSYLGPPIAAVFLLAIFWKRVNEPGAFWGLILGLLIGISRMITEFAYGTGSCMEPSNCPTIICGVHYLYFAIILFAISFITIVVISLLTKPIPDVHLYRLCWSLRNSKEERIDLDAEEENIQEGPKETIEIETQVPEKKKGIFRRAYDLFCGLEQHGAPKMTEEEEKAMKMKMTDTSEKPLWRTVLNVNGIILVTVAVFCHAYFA
Method: When SGLT1- and SGLT2-overexpressing cell lines (CHO-SGLT1, CHO-SGLT2 stable cells) were cultured to reach 60% confluency, the cells were treated with 0.05% trypsin to detach the cells from the bottom of the plate, suspended in 200 μL of culture medium, and used at room temperature.
Glucose reabsorption is induced by the Na^+ electrochemical potential gradient in the kidneys via SGLT2, and glucose diffuses across the cell membrane into the blood via glucose transporter 2 (GLUT-2), which enables facilitated glucose transport. While one Na^+ ion is absorbed per glucose molecule through SGLT2, two Nations are absorbed per glucose molecule through SGLT1. Therefore, by varying the composition of the buffer, only the glucose current was recorded, excluding the Na^+ current.
The experiment was conducted as described below.
1) Using a Narishige puller, a glass micropipette was made in two stages of 62.7° C. and 57° C., filled with an internal solution (145 mM CsCl, 5 mM NaCl, 10 mM HEPES, 11 mM ethylene glycol-bis(2-aminoethylether)-N,N,N′,N′-tetraacetic acid (EGTA), pH 7.2), and then inserted into the Ag/AgCl2 electrode of the patch clamp head-stage.
2) SGLT1 or SGLT2 cells were seeded on a chamber which was coated with poly-L-lysine in advance, and then an external solution (150 mM NaCl, 10 mM HEPES, 1 mM CaCl2), 1 mM MgCl2, pH 7.4) was flowed to ensure that the cells were sufficiently submerged. A temperature control device was used to maintain the temperature of the chamber at 36.5±0.5° C.
3) Using a micromanipulator, the glass micropipette was attached to the cell membrane to create a giga-ohm seal, which was then ruptured to detach the cell membrane (whole-cell mode, 3 to 5 MΩ).
4) The cells were fixed at −60 mV (holding potential), and the current [I^total current (Na^+/Glucose current (pA))] was measured in a gap-free data acquisition mode.
5) The external solution was continuously flowed into the chamber containing the cells, and the current (I^total) was recorded for about 30 seconds to 1 minute (stabilization), and then the external solution with added glucose (Na^+/Glucose external) (150 mM NaCl, 10 mM HEPES, 1 mM CaCl2), 1 mM MgCl2, 100 mM glucose, pH 7.4) was flowed to record the glucose current (I^glucose). Then, the cells were exposed to the external solution with added glucose containing one concentration of the compound for two minutes, and the glucose current suppressed by the compound was recorded.
7) After confirming the recovery of the current, the solution was replaced with a sodium-free external solution (Na^+-free external) (150 mM Choline-Cl, 1 mM CaCl2), 1 mM MgCl2, pH 7.4) and the Na^+ current was recorded. After the current was stabilized, the solution was replaced with the external solution to record the current in the resting state when the cells were not stimulated, thereby securing the reliability of the experimental system.
For statistical analysis of data, pCLAMP10.4 (Molecular Devices, LLC, San Jose, CA, USA) or Origin6.0 (OriginLab, Northampton, MA, USA) was used.
The test results were expressed as the mean±SD of the mean. Statistical significance was verified using the nonparametric Kruskal-Wallis test using Statistical Package for the Social Sciences (SPSS) for Windows (version 26.0, IBM Corp., Armonk, NY, USA). The significance level was set at p<0.05.

[2] = system: normal rats; assay: Oral glucose tolerance test (OGTT) after intravenous administration; format: in vivo, rat; details: 1 mg/kg intravenous; for Glucose tolerance inhibition rate improved compared to the vehicle (blood glucose AUC): AUC for 120 minutes; for Glucose tolerance in OGTT: glucose 2 g/kg
Method: Enavogliflozin, M1, or M2 was intravenously administered once to normal rats, and antidiabetic efficacy was evaluated.
To perform the oral glucose tolerance test (OGTT) and examine urinary glucose excretion (UGE), enavogliflozin, M1, or M2 was administered intravenously to male 8-week-old normal rats at a dose of 1 mg/kg, and then a glucose solution (2 g/kg) was administered to load blood sugar. The blood sugar level was measured before glucose solution administration and at 5, 10, 15, 20, 30, 40, 60, 90, and 120 minutes after the administration to evaluate oral glucose tolerance. In addition, the UGE was evaluated by measuring the amount of glucose excreted in the urine 6, 24, 48, and 72 hours after the administration of the glucose solution.

Binding affinity T1/2, on (s), SGLT1 ([1]; treatment concentration 5 μM) | Dissociation degree T1/2, off (s), SGLT1 ([1]; treatment concentration 5 μM) | Dissociation degree T1/2, off (s), SGLT1 ([1]; treatment concentration 5 μM, listed as enavogliflozin) | Dissociation from SGLT1, times slower than dapagliflozin ([1]; ratio of T1/2,off) | Dissociation from SGLT1, times slower than enavogliflozin ([1]; ratio of T1/2,off) | Binding affinity T1/2, on (s), SGLT1 ([1]; treatment concentration 20 μM) | Dissociation degree T1/2, off (s), SGLT1 ([1]; treatment concentration 20 μM) | SMILES | Glucose tolerance inhibition rate improved compared to the vehicle (blood glucose AUC) [2] | Glucose tolerance in OGTT [2] | Glucose tolerance in OGTT ([2]; 1 mg/kg) | Glucose tolerance in OGTT ([2]; listed as Metabolite M1, 1 mg/kg)
11.5 ± 4.2 s | 34.9 ± 9.6 s | 34.9 s |  |  |  |  | OC[C@H]1O[C@@H](c2cc(Cc3ccc(C4CC4)cc3)c(Cl)c3c2CCO3)[C@H](O)[C@@H](O)[C@@H]1O [Enavogliflozin, (2S,3R,4R,5S,6R)-2-(7-chloro-6 (4-cyclopropylbenzyl)-2,3-dihydrobenzofuran-4-yl)-6-(hydroxymethyl)tetrahydro-2H-pyran-3,4,5-triol] | 27% | improved glucose tolerance |  | 
18.8 ± 4.1 s | 59.8 s and 59.8 ± 11.5*^, + s |  | 1.96 times | 1.7 times |  |  | OC[C@H]1O[C@@H](c2cc(Cc3ccc(C4CC4)cc3)c(Cl)c3c2CC(O)O3)[C@H](O)[C@@H](O)[C@@H]1O (stereo partly drawn) [M1, (2S,3R,4R,5S,6R)-2-(7-chloro-6-(4-cyclopropylbenzyl)-2-hydroxy-2,3-dihydrobenzofuran-4-yl)-6-(hydroxymethyl)tetrahydro-2H-pyran-3,4,5-triol] | 49% |  | improved glucose tolerance | superior glucose tolerance to enavogliflozin
 |  |  |  |  | 15.7 ± 6.5 s | 23.5 s and 23.5 ± 10.4 s | OC[C@H]1O[C@@H](c2cc(Cc3ccc(C4(O)CC4)cc3)c(Cl)c3c2CCO3)[C@H](O)[C@@H](O)[C@@H]1O [M2, (2S,3R,4R,5S,6R)-2-(7-chloro-6-(4-(1-hydroxycyclopropyl)benzyl)-2,3-dihydrobenzofuran-4-yl)-6-(hydroxymethyl)tetrahydro-2H-pyran-3,4,5-triol] | 23% |  | improved glucose tolerance | 
